Test results reported in ChEMBL document CHEMBL1201862, “PubChem BioAssay data set” (2004).
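These data come from cells grown in 96-well plates and exposed to compound for 48 hours at five concentrations. GI50: concentration for 50% inhibition of growth.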 Calls of active or inactive are those of the source. Cut-off read from the data, not from the text of the source: active = GI50 up to about 1.1 µM and inactive = higher.

Legend:
Assay in all cases: growth of human tumour cells (NCI), 48 h
786-0 = test system: 786-0
A549 = test system: A549
ACHN = test system: ACHN
COLO 205 = test system: COLO 205
HCT-116 = test system: HCT-116
HOP-62 = test system: HOP-62
HT-29 = test system: HT-29
K562 = test system: K562
KM12 = test system: KM12
M14 = test system: M14
M19-MEL = test system: M19-MEL
MOLT-4 = test system: MOLT-4
SF-268 = test system: SF-268
SK-MEL-28 = test system: SK-MEL-28
HOP-92 = test system: HOP-92
Hs-578T = test system: Hs-578T
NCI/ADR-RES = test system: NCI/ADR-RES
OVCAR-4 = test system: OVCAR-4
PC-3 = test system: PC-3
SK-MEL-5 = test system: SK-MEL-5

Row | Structure (SMILES) | GI50 (786-0) | GI50 (A549) | GI50 (ACHN) | GI50 (COLO 205) | GI50 (HCT-116) | GI50 (HOP-62) | GI50 (HT-29) | GI50 (K562) | GI50 (KM12) | GI50 (M14) | GI50 (M19-MEL) | GI50 (MOLT-4) | GI50 (SF-268) | GI50 (SK-MEL-28) | GI50 (HOP-92) | GI50 (Hs-578T) | GI50 (NCI/ADR-RES) | GI50 (OVCAR-4) | GI50 (PC-3) | GI50 (SK-MEL-5)
1 | CC(C)CCS(=O)(=O)OCCCCOS(=O)(=O)CCC(C)C | > 100 µM (inactive) | > 100 µM (inactive) | > 100 µM (inactive) | > 100 µM (inactive) | > 100 µM (inactive) | 13.9 µM (inactive) | > 100 µM (inactive) | > 100 µM (inactive) | > 100 µM (inactive) | 16.1 µM (inactive) | > 100 µM (inactive) | > 100 µM (inactive) | > 100 µM (inactive) | > 100 µM (inactive) |  |  |  |  |  | 
2 | CC(C)=CCC[C@@H](C)C1=CC(=O)C(C)=C(O)C1=O [ISOPEREZONE] | 5.78 µM (inactive) | 12.3 µM (inactive) | 3.85 µM (inactive) | 10.2 µM (inactive) | 4.08 µM (inactive) | 12.9 µM (inactive) | 7.16 µM (inactive) | 1.58 µM (inactive) | 5.09 µM (inactive) | 5.25 µM (inactive) |  | 1.71 µM (inactive) | 10.4 µM (inactive) | 11 µM (inactive) | 2.5 µM (inactive) | 6.43 µM (inactive) | 3.19 µM (inactive) | 7.1 µM (inactive) | 5.01 µM (inactive) | 6.12 µM (inactive)
3 | C=C1C(=O)O[C@@H]2[C@@H]3O[C@@H](C[C@@H]13)[C@](C)(O)CC/C=C(\C)CCC[C@@H]2C | 5.42 µM (inactive) | 17.4 µM (inactive) | 8.91 µM (inactive) | 14.7 µM (inactive) | 8.13 µM (inactive) | 15.9 µM (inactive) | 17.3 µM (inactive) | 4.66 µM (inactive) | 16.3 µM (inactive) | 12.2 µM (inactive) |  | 3.35 µM (inactive) | 16.9 µM (inactive) | 15.8 µM (inactive) | 13.2 µM (inactive) | 17.4 µM (inactive) | 10.6 µM (inactive) | 14.5 µM (inactive) | 10.4 µM (inactive) | 16.4 µM (inactive)
4 | CC1(C)N=C(N)N=C(N)N1c1cccc(OCc2cccc(N)c2)c1 | 10.9 µM (inactive) | 7.21 µM (inactive) | > 100 µM (inactive) | 37.8 µM (inactive) | 13.3 µM (inactive) | > 91.6 µM (inactive) | 16.9 µM (inactive) | 3.17 µM (inactive) | 49.9 µM (inactive) | 58.5 µM (inactive) |  | 8.02 µM (inactive) | 14.3 µM (inactive) | > 100 µM (inactive) | > 49 µM (inactive) | > 100 µM (inactive) | > 100 µM (inactive) | > 69.5 µM (inactive) | > 38.7 µM (inactive) | 12.4 µM (inactive)
5 | CCN(CC)CCCC(C)Nc1ccnc(/C=C/c2ccc(Cl)cc2)c1 (stereo not given) | 1.41 µM (inactive) | 1.91 µM (inactive) | 3.32 µM (inactive) | 1.35 µM (inactive) | 1.72 µM (inactive) | 1.84 µM (inactive) | 3.49 µM (inactive) | 0.135 µM (active) | 2.02 µM (inactive) | 1.11 µM (active) |  | 1.22 µM (inactive) | 3.06 µM (inactive) | 1.7 µM (inactive) | 1.26 µM (inactive) | 2.26 µM (inactive) | 3.12 µM (inactive) | 3.51 µM (inactive) | 1.56 µM (inactive) | 3.23 µM (inactive)
6 | Clc1ccc(-c2c(C3=NCCCN3)nnn2-c2ccc(Cl)cc2)cc1 | 40.9 µM (inactive) | > 76 µM (inactive) | > 78.2 µM (inactive) | 16.6 µM (inactive) | 28.9 µM (inactive) | 55.5 µM (inactive) | 21.3 µM (inactive) | 20.9 µM (inactive) | 57.4 µM (inactive) | 16.7 µM (inactive) |  | 27.4 µM (inactive) | 48.8 µM (inactive) | 17.1 µM (inactive) | 22.8 µM (inactive) | 26.9 µM (inactive) | > 50.6 µM (inactive) | > 65.2 µM (inactive) | 31.1 µM (inactive) | 17.7 µM (inactive)
7 | Cn1cc(C2NC(=O)c3ccccc3N2)c2ccccc21 (stereo not given) | 0.955 µM (active) | 1.22 µM (inactive) | 1.75 µM (inactive) | 0.925 µM (active) | 0.587 µM (active) | 0.861 µM (active) | 0.191 µM (active) | 0.125 µM (active) | 0.0612 µM (active) | 0.578 µM (active) |  | 0.255 µM (active) | 3.86 µM (inactive) | 0.643 µM (active) | 22.3 µM (inactive) | 0.649 µM (active) | 0.491 µM (active) | 0.306 µM (active) | 0.188 µM (active) | 0.182 µM (active)
8 | O=C1C(Cl)=CC2(C=C1Cl)CCNC1=C2C(=O)c2nc[nH]c2C1=O | 41.3 µM (inactive) | > 100 µM (inactive) | > 100 µM (inactive) | 22.9 µM (inactive) | 26 µM (inactive) | > 100 µM (inactive) | 29.6 µM (inactive) | 29.4 µM (inactive) | 43.4 µM (inactive) | 39 µM (inactive) |  | 26.9 µM (inactive) | 54.6 µM (inactive) | 33.7 µM (inactive) | 42.4 µM (inactive) | > 100 µM (inactive) | > 100 µM (inactive) | 58.7 µM (inactive) | 35.3 µM (inactive) | 16.6 µM (inactive)
9 | O=C1C(=C(I)I)c2ccccc2-c2ccccc21 | 2.07 µM (inactive) | 16.3 µM (inactive) | 2.32 µM (inactive) | 1.56 µM (inactive) | 2.32 µM (inactive) | 11.9 µM (inactive) | 3.21 µM (inactive) | 1.85 µM (inactive) | 12 µM (inactive) | 3.02 µM (inactive) |  | 0.883 µM (active) | 6.71 µM (inactive) | 2.59 µM (inactive) | 2.26 µM (inactive) | 7.83 µM (inactive) | 3.24 µM (inactive) | 2.98 µM (inactive) | 3.71 µM (inactive) | 5.37 µM (inactive)
10 | COC(=O)C(O)P(=O)(OC)OC (stereo not given) | > 100 µM (inactive) | > 100 µM (inactive) | > 100 µM (inactive) | > 100 µM (inactive) | > 100 µM (inactive) | > 100 µM (inactive) | > 100 µM (inactive) | > 100 µM (inactive) | > 100 µM (inactive) | > 100 µM (inactive) |  | > 100 µM (inactive) | > 100 µM (inactive) | > 100 µM (inactive) | > 100 µM (inactive) | > 100 µM (inactive) | > 100 µM (inactive) | > 100 µM (inactive) | > 100 µM (inactive) | > 100 µM (inactive)
11 | COC(=O)C(C)(/N=C/c1ccccc1)c1ccccc1 (stereo not given) | > 100 µM (inactive) | > 100 µM (inactive) | > 100 µM (inactive) | > 100 µM (inactive) | > 100 µM (inactive) | > 100 µM (inactive) | > 100 µM (inactive) | > 100 µM (inactive) | > 100 µM (inactive) | > 100 µM (inactive) |  | > 100 µM (inactive) | > 100 µM (inactive) | > 100 µM (inactive) | > 100 µM (inactive) | > 100 µM (inactive) | > 100 µM (inactive) | > 100 µM (inactive) | > 100 µM (inactive) | > 100 µM (inactive)
12 | Nc1cc(N)cc(Cc2ccccc2)c1 | > 100 µM (inactive) | > 100 µM (inactive) | > 100 µM (inactive) | > 100 µM (inactive) | > 100 µM (inactive) | > 100 µM (inactive) | > 100 µM (inactive) | > 100 µM (inactive) | > 100 µM (inactive) | > 100 µM (inactive) |  | > 100 µM (inactive) | > 100 µM (inactive) | > 100 µM (inactive) | > 100 µM (inactive) | > 100 µM (inactive) | > 100 µM (inactive) | > 100 µM (inactive) | > 100 µM (inactive) | > 100 µM (inactive)
13 | CCOP(=O)(OCC)C(Nc1cccc(F)c1)c1ccccc1 (stereo not given) | > 100 µM (inactive) | 43.9 µM (inactive) | 58.7 µM (inactive) | 34.4 µM (inactive) | 44.1 µM (inactive) | > 100 µM (inactive) | 58.1 µM (inactive) | 34.8 µM (inactive) | 67 µM (inactive) | 69.5 µM (inactive) |  | 30 µM (inactive) | 59 µM (inactive) | > 100 µM (inactive) | 32.7 µM (inactive) | 35.9 µM (inactive) | 34.5 µM (inactive) | 59.3 µM (inactive) | 50.2 µM (inactive) | 42.2 µM (inactive)
14 | CC(C)(CO)CNc1cc(=O)[nH]c(N)n1 | > 100 µM (inactive) | > 100 µM (inactive) | > 100 µM (inactive) | > 100 µM (inactive) | > 100 µM (inactive) | > 100 µM (inactive) | > 100 µM (inactive) | > 100 µM (inactive) | > 100 µM (inactive) | > 100 µM (inactive) |  | > 100 µM (inactive) | > 100 µM (inactive) | > 100 µM (inactive) | > 100 µM (inactive) | > 100 µM (inactive) | > 100 µM (inactive) | > 100 µM (inactive) | > 100 µM (inactive) | > 100 µM (inactive)
15 | CC(=O)OC(CC(C)C)P1(=O)N(CC(C)(C)C)[C@@H]2CCCC[C@H]2N1CC(C)(C)C (stereo not given in full) | 10.8 µM (inactive) | 5.42 µM (inactive) | 7.28 µM (inactive) | 6 µM (inactive) | 5.24 µM (inactive) | 14.6 µM (inactive) | 7.1 µM (inactive) | 8.47 µM (inactive) | 9.66 µM (inactive) | 7.4 µM (inactive) |  | 9.62 µM (inactive) | 15.1 µM (inactive) | 14.2 µM (inactive) | 2.58 µM (inactive) | 9.75 µM (inactive) | 8.3 µM (inactive) | 9.42 µM (inactive) | 3.73 µM (inactive) | 9.4 µM (inactive)
